Measured values: patent publication US10689383B2, “Optionally fused heterocyclyl-substituted derivatives of pyrimidine useful for the treatment of inflammatory, metabolic, oncologic and autoimmune diseases” (NUEVOLUTION A/S, priority 2014, dated 2020)

Assays:
[1] = molecular target: T1, human RORγt (Ligand Binding Domain) (Homo sapiens, UniProt P51449); assay: Fluorescence Polarization (FP) Assay; settings: Fluorescence Polarization (FP) Assay; values given as upper bounds of activity ranges; read-out: FP activity range
T1 construct: purchased Crelux (Planegg, Germany) batch no PC5032-1
T1 sequence (P51449 269-508 limits assumed): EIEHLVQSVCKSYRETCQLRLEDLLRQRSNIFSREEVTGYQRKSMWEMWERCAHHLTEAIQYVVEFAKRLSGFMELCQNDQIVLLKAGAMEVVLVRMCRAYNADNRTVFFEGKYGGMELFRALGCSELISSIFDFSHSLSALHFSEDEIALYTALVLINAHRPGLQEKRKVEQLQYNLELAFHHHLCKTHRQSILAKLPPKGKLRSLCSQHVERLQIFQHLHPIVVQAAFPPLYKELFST
Method: (§1) The activity of the compounds was evaluated using a Fluorescence Polarization (FP) Assay and, in most cases, a Th17 Assay and/or RORγ Reporter assay (also referred to as Gal4 assay). The FP assay is an in vitro assay monitoring binding within the ligand binding pocket. The RORγ and the Th17 assays are both cell-based assays monitoring functional activity of the compound assayed.
The total volume was 25 μl, in a black Perkin Elmer OptiPlate. As negative control, 1 μl DMSO was used. […] The probe is a fluorescently labeled (TAMRA) RORγt ligand identified by Nuevolution with a total molecular weight of 910 g/mole as shown in Graph A in FIG. 1.

[2] = molecular target: T2, yeast Gal4-DNA binding domain fused to the ligand binding domain of human RORγ (Homo sapiens, UniProt P51449); assay: RORγ Reporter Assay (Gal4); type: cell-based; settings: values given as lower bounds of ranges; for Gal4 activity range @ 1 μM (% inhibition): RORγ Reporter Assay (Gal4) at 1 μM; for Gal4 activity range @ 0.1 μM (% inhibition): RORγ Reporter Assay (Gal4) at 0.1 μM
T2 construct: host or cells: HEK293t
T2 sequence (P51449 269-508 limits assumed): T1 sequence (P51449 269-508 limits assumed)
Method: as §1
Cell-based RORγ functional assays were performed using a commercially available assay product (INDIGO Biosciences, State College, Pa., USA; product # IB04001). The RORγ reporter cells are HEK293t cells transfected with one vector that provides high level constitutive expression of a hybrid protein comprised of the yeast Gal4-DNA binding domain fused to the ligand binding domain of human RORγ, and a second vector comprising the firefly luciferase cDNA functionally linked to the upstream activation sequence (UAS) of yeast Gal4. A suspension of RORγ Reporter Cells was prepared using the protocol and culture medium provided in the kit product, and 100 μl of the Reporter Cell suspension was then dispensed into wells of a white, collagen-treated, 96-well assay plate. Concentrated stocks of test compounds were prepared in DMSO, then further diluted using media provided in the kit to generate ‘2×-concentration’ treatment media. 100 μl of medium for each respective treatment concentration dispensed into triplicate assay wells, thereby combining with the reporter cells. All media formulations contained 10% charcoal stripped Fetal Bovine Serum, but are otherwise proprietary to INDIGO Biosciences. Final treatment concentrations for each test compound were 1,000 nM and 100 nM, each with 0.1% residual DMSO. Separate control treatments were media supplemented with vehicle only (0.1% DMSO) to determine the constitutive level of RORγ activity in the reporter cells, and the reference inverse-agonist ursolic acid (f.c. 6,000 nM to 8.2 nM in 3-fold decrements) to establish a positive control inverse-agonist dose response. Assay plates were placed in a 37° C., 5% CO2, 85% humidity incubator for 24 hour. Treatment media were then discarded, 100 μl of luciferase detection reagent was added to each well, and relative light units (RLUs) were quantified from each assay well using a plate reading luminometer. Values of average RLU+/−standard deviation were computed for all treatment sets, followed by the calculations of fold-reduction: [Average RLUVehicle/Average RLUTest Cmpd]. Percent-reduction of RORγ activity in response to respective test compound treatments was calculated: [100*(1−[Ave RLUTest Cmpd/Ave RLUVehicle)] where the theoretical minimum reduction (0% reduction) derives from Vehicle treatment only, no treatment compound.

| IC50 [1] | Gal4 activity range @ 1 μM (% inhibition) [2] | Gal4 activity range @ 0.1 μM (% inhibition) [2] | SMILES |
| --- | --- | --- | --- |
| < 1000 nM |  |  | NC(=O)Cc1ccc(CNc2ncnc(N3C[C@H](F)C[C@@H]3c3ccc(C(F)(F)F)cc3)c2F)cc1 (racemic) [Example 241, 2-[4-[[[5-fluoro-6-[(2R,4R)-4-fluoro-2-[4-(trifluoromethyl)phenyl]pyrrolidin-1-yl]pyrimidin-4-yl]amino]methyl]phenyl]acetamide AND 2-[4-[[[5-fluoro-6-[(2S,4S)-4-fluoro-2-[4-(trifluoromethyl)phenyl]pyrrolidin-1-yl]pyrimidin-4-yl]amino]methyl]phenyl]acetamide] |
| < 2000 nM |  |  | NC(=O)Cc1ccc(CNc2ncnc(N3C[C@H](F)C[C@H]3c3ccc(C(F)(F)F)cc3)c2F)cc1 (racemic) [Example 242, 2-[4-[[[5-fluoro-6-[(2S,4R)-4-fluoro-2-[4-(trifluoromethyl)phenyl]pyrrolidin-1-yl]pyrimidin-4-yl]amino]methyl]phenyl]acetamide AND 2-[4-[[[5-fluoro-6-[(2R,4S)-4-fluoro-2-[4-(trifluoromethyl)phenyl]pyrrolidin-1-yl]pyrimidin-4-yl]amino]methyl]phenyl]acetamide] |
| < 500 nM |  |  | CC(C)(C)C[C@@H](Nc1ncnc(N2CCC[C@@H]2c2ccc(C(F)(F)F)cc2)c1F)C(N)=O (single isomer, unassigned) [Example 5, (2R)-2-[[5-fluoro-6-[(2R)-2-[4-(trifluoromethyl)phenyl]pyrrolidin-1-yl]pyrimidin-4-yl]amino]-4,4-dimethyl-pentanamide or (2R)-2-[[5-fluoro-6-[(2S)-2-[4-(trifluoromethyl)phenyl]pyrrolidin-1-yl]pyrimidin-4-yl]amino]-4,4-dimethyl-pentanamide] |
| < 500 nM |  |  | CC(C)(C)CC(Nc1ncnc(N2CCCC2c2ccc3ncccc3c2)c1F)C(N)=O (stereo in doubt) [Example 23, (2R)-2-[[5-fluoro-6-[2-(6-quinolyl)pyrrolidin-1-yl]pyrimidin-4-yl]amino]-4,4-dimethyl-pentanamide] |
| < 500 nM |  |  | CC(C)(C)CC(Nc1ncnc(N2CCCC2c2ccc3c(c2)OCCO3)c1F)C(N)=O (stereo in doubt) [Example 24, (2R)-2-[[6-[2-(2,3-dihydro-1,4-benzodioxin-6-yl)pyrrolidin-1-yl]-5-fluoro-pyrimidin-4-yl]amino]-4,4-dimethyl-pentanamide] |
| < 500 nM |  |  | CCC(C(=O)NCc1ccoc1C(N)=O)n1ccc2c(N3CCCC3c3ccc(-c4ccccc4)cc3)ncnc21 (stereo not drawn) [Example 4, 3-[[2-[4-[2-(4-phenylphenyl)pyrrolidin-1-yl]pyrrolo[2,3-d]pyrimidin-7-yl]butanoylamino]methyl]furan-2-carboxamide] |
| < 500 nM |  |  | NC(=O)[C@@H](Cc1cc(F)c(F)cc1F)Nc1ncnc(N2CCCC2c2nc3ccccc3s2)c1F (stereo partly drawn) [Example 9, (2R)-2-[[6-[2-(1,3-benzothiazo1-2-yl)pyrrolidin-1-yl]-5-fluoro-pyrimidin-4-yl]amino]-3-(2,4,5-trifluorophenyl)propanamide] |
| < 500 nM |  |  | CC(C)(C)C[C@@H](Nc1ncnc(N2CCCC2c2ccc(Cl)cc2Cl)c1F)C(N)=O (stereo partly drawn) [Example 11, (2R)-2-[[6-[2-(2,4-dichlorophenyl)pyrrolidin-1-yl]-5-fluoro-pyrimidin-4-yl]amino]-4,4-dimethyl-pentanamide] |
| < 10000 nM |  |  | Cc1nc(N[C@H](CC(C)(C)C)C(N)=O)c(C)c(N2CCCC2c2ccc(C(F)(F)F)cc2)n1 (stereo partly drawn) [Example 15, (2R)-2-[[2,5-dimethyl-6-[2-[4-(trifluoromethyl)phenyl]pyrrolidin-1-yl]pyrimidin-4-yl]amino]-4,4-dimethyl-pentanamide] |
| < 10000 nM |  |  | CC(C)(C)CCNc1ncnc(N2CCCC2c2ccc(C(F)(F)F)cc2)c1F (stereo not drawn) [Example 21, N-(3,3-dimethylbutyl)-5-fluoro-6-[2-[4-(trifluoromethyl)phenyl]pyrrolidin-1-yl]pyrimidin-4-amine] |
|  | >20 % inhibition |  | NC(=O)Cc1ccc(COc2ncnc(N3CCCC3c3ccc(C(F)(F)F)nc3)c2F)cc1 (stereo not drawn) [Example 84, 2-[4-[[5-fluoro-6-[2-[6-(trifluoromethyl)-3-pyridyl]pyrrolidin-1-yl]pyrimidin-4-yl]oxymethyl]phenyl]acetamide] |
|  | >20 % inhibition |  | NC(=O)Cc1ncc(COc2ncnc(N3CCCC3c3ccc(C(F)(F)F)cc3)c2F)cn1 (stereo not drawn) [Example 86, 2-[5-[[5-fluoro-6-[2-[4-(trifluoromethyl)phenyl]pyrrolidin-1-yl]pyrimidin-4-yl]oxymethyl]pyrimidin-2-yl]acetamide] |
|  | >20 % inhibition |  | NC(=O)Cc1ncc(CNc2ncnc(N3CCCC3c3ccc(C(F)(F)F)cc3)c2F)cn1 (stereo not drawn) [Example 87, 2-[5-[[[5-fluoro-6-[2-[4-(trifluoromethyl)phenyl]pyrrolidin-1-yl]pyrimidin-4-yl]amino]methyl]pyrimidin-2-yl]acetamide] |
|  | >20 % inhibition | >0 % inhibition | Cc1ccc(CNc2ncnc(-n3nncc3-c3ccc(C(F)(F)F)cc3)c2F)cn1 [Example 96, 5-fluoro-N-[(6-methyl-3-pyridyl)methyl]-6-[5-[4-(trifluoromethyl)phenyl]triazol-1-yl]pyrimidin-4-amine] |
|  | >50 % inhibition | >20 % inhibition | COc1nc(C)ccc1CNc1ncnc(N2CCCC2c2ccc(C(F)(F)F)cc2)c1F (stereo not drawn) [Example 99, 5-fluoro-N-[(2-methoxy-6-methyl-3-pyridyl)methyl]-6-[2-[4-(trifluoromethyl)phenyl]pyrrolidin-1-yl]pyrimidin-4-amine] |
|  | >20 % inhibition | >0 % inhibition | Cc1ccc(CNc2ncnc(N3CCCC3c3ccc(C(F)(F)F)cc3O)c2F)cn1 (stereo not drawn) [Example 104, 2-[1-[5-fluoro-6-[(6-methyl-3-pyridyl)methylamino]pyrimidin-4-yl]pyrrolidin-2-yl]-5-(trifluoromethyl)pheno1] |
|  | >20 % inhibition | >0 % inhibition | Cc1nc(CNc2ncnc(N3CCCC3c3ccc(C(F)(F)F)cc3)c2F)ccc1C(C)O (stereo not drawn) [Example 112, 1-[6-[[[5-fluoro-6-[2-[4-(trifluoromethyl)phenyl]pyrrolidin-1-yl]pyrimidin-4-yl]amino]methyl]-2-methyl-3-pyridyl]ethanol] |
|  |  | >50 % inhibition | O=C(O)Cc1ccc(CNc2ncnc(N3CCC[C@@H]3c3ccc(C(F)(F)F)cc3)c2F)cc1 [Example 117, 2-[4-[[[5-fluoro-6-[(2R)-2-[4-(trifluoromethyl)phenyl]pyrrolidin-1-yl]pyrimidin-4-yl]amino]methyl]phenyl]acetic acid] |
|  | >50 % inhibition | >20 % inhibition | O=C(c1ccncc1)N1CCC(Nc2ncnc(N3CCCC3c3ccc(C(F)(F)F)cc3)c2F)C1 (stereo not drawn) [Example 121, [3-[[5-fluoro-6-[2-[4-(trifluoromethyl)phenyl]pyrrolidin-1-yl]pyrimidin-4-yl]amino]pyrrolidin-1-yl]-(4-pyridyl)methanone] |
|  | >20 % inhibition |  | O=C1CCCN1Cc1ccc(CNc2ncnc(N3CCCC3c3ccc(C(F)(F)F)cc3)c2F)cc1 (stereo not drawn) [Example 124, 1-[[4-[[[5-fluoro-6-[2-[4-(trifluoromethyl)phenyl]pyrrolidin-1-yl]pyrimidin-4-yl]amino]methyl]phenyl]methyl] pyrrolidin-2-one] |
|  | >50 % inhibition | >20 % inhibition | NC(=O)Cc1ccc(CNc2ncnc(N3CCCC3c3ccccc3)c2F)cc1 (stereo not drawn) [Example 279, 2-[4-[[[5-fluoro-6-(2-phenylpyrrolidin-1-yl)pyrimidin-4-yl]amino]methyl]phenyl]acetamide] |
